These are literature values, as cited in patent US5441887A, “Rapid degradation of halogenated hydrocarbons by soluble methane monooxygenase” (Regents of the University of Minnesota, priority 1994, dated 1995).

In this data set the test system is Methylococcus capsulatus Bath. The note with it: aerobe Methylococcus capsulatus Bath; cited from earlier work.

For the compound `ClC(Cl)Cl` [chloroform], the Oxidation rate is on record as 35 nano-moles per gram of cells per minute.
